Measurements published in patent US9725459B2, “3-oxo-tetrahydro-furo[3,2-B]pyrrol-4(5H)-yl) derivatives I” (GRÜNENTHAL GMBH, priority 2014, dated 2017).

Legend:
human cathepsin S (CatS) = human cathepsin S (CatS) (Homo sapiens (Human), UniProt P25774); assay: CatS functional enzyme assay; format: biochemical; settings: for Selectivity Ki(hCatS)/Ki(hCatK): ratio Ki(hCatS)/Ki(hCatK); for Ki: recombinant human CatS, substrate Z-VVR-AMC 5 μM, pH 6.5, Ki by Cheng Prusoff equation, read-out: hCatS, Ki
In short: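 Recombinant human enzymes were incubated 10 min at RT with AMC substrate: CatS 0.0007 mU/well with Z-VVR-AMC 5 µM; CatK 0.00175 mU/well with Z-FR-AMC 40 µM; CatL 0.000874 mU/well with Z-VVR-AMC 40 µM. Fluorescence gave IC50, converted to Ki by Cheng-Prusoff.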

human cathepsin K (CatK) = human cathepsin K (CatK) (Homo sapiens (Human), UniProt P43235); assay: CatK functional enzyme assay; format: biochemical; settings: recombinant human CatK, substrate Z-FR-AMC 40 μM, pH 5.5; Ki by Cheng Prusoff equation; read-out: hCatK, Ki
In short: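 Recombinant human enzymes in 50 mM NaOAc, 10 mM EDTA, 1 mM DTT, 0.01% Triton X-100, pH 5.5, 10 min at RT. CatK: 0.00175 mU/well with 40 μM Z-FR-AMC; CatL: 0.000874 mU/well with 40 μM Z-VVR-AMC. AMC fluorescence read; IC50 converted to Ki via Cheng–Prusoff.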

human cathepsin L (CatL) = human cathepsin L (CatL) (Homo sapiens (Human), UniProt P07711); assay: CatL functional enzyme assay; format: biochemical; settings: read-out: hCatL, inhibition [%] at 31.6 μM
[1] = Caco 2 permeability assay; format: in vitro ADME, human; settings: human; for efflux ratio at 120 min, 10 μM: pH 7.4, efflux ratio ER=Peff(B−A)/Peff(A−B), Caco-2; for Papp A→B at 120 min, 10 μM / Papp B→A at 120 min, 10 μM: Caco-2 monolayer, HBSS pH 7.4; for Papp A→B at 120 min, 10 μM: apical to basolateral, read-out: Peff a − b; for Papp B→A at 120 min, 10 μM: basolateral to apical, read-out: Peff b − a
Description: (§1) The intestinal permeability of a potential drug is assessed by in vitro cell culture from a human colon adenoma-carcinoma derived cell line. This cell line expresses some of the systems considered relevant to active drug transport e.g. […] (P-gp). In vitro cellular permeability assays can reflect both, permeation by passive diffusion and active transport (uptake and efflux). The rate of permeation across monolayers of Caco 2 cells were correlated to the extents of absorption (Hidalgo et al., Gastroenterology 1989; 96(3):736 49). Original methodology was developed by Artursson and Taveli (Drug Bioavailability. Series: Methods and Principles in Medicinal Chemistry. Weinheim: Wiley-VCH Verlag; 2003; p. 72-89).
(§2) The assay is performed as a trans-flux experiment. Caco-2 cells (cells from ATCC) are seeded and grown to confluence to form a monolayer (ca. 3 weeks, between passage numbers 40-60) on a readily permeable support in a plastic well supported within a chamber (Millipore Multiscreen Caco-2 plates, at a cell density of ca. 1×10^5 cells/cm^2). Cells are cultured for 20 days in DMEM and media is changed every two or three days. The cells form tight junctions, so paracellular diffusion is not possible, and grow in a polarised manner, efflux transporters (P-gp) are expressed on their apical surfaces facing the culture medium, rather than at their basolateral surfaces through which they are attached to the support membrane. A low concentration of a test compound is added to the upper (apical: A) or lower (basolateral: B) chambers, and the rate of loss from the donor compartment, and the rate of transfer to the acceptor chamber, is determined by LC-MS/MS. Consequently the influence of efflux transporters expressed in the apical membrane can be determined by comparing permeability rates from A to B and B to A. Assays are generally performed in gently shaken protein-free buffer.
(§3) On ca. day 20 the permeability study is performed. The monolayers are prepared by rinsing both basolateral and apical surfaces twice with Hanks Balanced Salt Solution (HBSS) pH 7.4 buffer with HEPES (25 mM) and 4.45 mM glucose at 37° C. Cells are then incubated with HBSS in both apical and basolateral compartments for 40 min to stabilise physiological parameters. Incubations are carried out in an atmosphere of 5% CO2 with a rel. humidity of 95% at 37° C.
(§4) HBSS is next removed from the apical compartment and replaced with test compound dosing solution. Test compound dosing solutions are made by diluting 10 mM test compound in DMSO with HBSS to give a final test compound concentration of 10 μM (final DMSO concentration 1%).
(§5) The fluorescent integrity marker lucifer yellow is also included in the dosing solution. Analytical standards are made from dosing solutions. The apical compartment inserts are then placed into ‘companion’ plates containing fresh HBSS. For basolateral to apical (B-A) permeability determination the experiment is initiated by replacing buffer in the inserts then placing them in companion plates containing dosing solutions. At 120 min the companion plate is removed and apical and basolateral samples diluted for analysis by LC-MS/MS. Test compound permeability is assessed in duplicate. […] Talinolol (a known P-gp substrate 2) is also included as a control compound to assess whether functional P-gp is present in the Caco-2 cell monolayer.
(§6) Test and control compounds are quantified by LC-MS/MS cassette analysis using a 5-point calibration with appropriate dilution of the samples. The starting concentration (C0) and experimental recovery are calculated from both apical and basolateral compartment concentrations.
(§7) Apparent permeability (Papp), used interchangeably with effective permeability (Peff) and efflux ratio (ER) are generated for each compound and reference compound. The permeability coefficient for each compound (Papp) is calculated from the following equation: Peff=dQ/dt/C0×A […]

Caco-2 cells = assay: Caco 2 permeability assay; format: in vitro ADME, human; settings: Caco-2, verbal assessment
Description: as §1, §2, §3, §4, §5, §6, §7

Chain of human cathepsin S (CatS) (P25774 115-331): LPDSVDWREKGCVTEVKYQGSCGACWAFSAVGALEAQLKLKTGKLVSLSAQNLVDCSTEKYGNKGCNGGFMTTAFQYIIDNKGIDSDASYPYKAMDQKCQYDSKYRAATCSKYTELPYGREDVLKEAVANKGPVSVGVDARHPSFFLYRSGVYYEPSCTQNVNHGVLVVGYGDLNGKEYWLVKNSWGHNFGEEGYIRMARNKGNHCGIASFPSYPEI
Chain of human cathepsin K (CatK) (P43235 115-329): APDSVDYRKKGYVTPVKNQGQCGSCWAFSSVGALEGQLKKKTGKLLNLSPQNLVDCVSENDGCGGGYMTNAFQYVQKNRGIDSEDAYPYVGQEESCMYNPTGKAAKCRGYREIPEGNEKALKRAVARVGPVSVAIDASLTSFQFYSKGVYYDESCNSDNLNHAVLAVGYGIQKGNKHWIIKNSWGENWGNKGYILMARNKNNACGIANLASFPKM
Chain of human cathepsin L (CatL) (P07711 114-333): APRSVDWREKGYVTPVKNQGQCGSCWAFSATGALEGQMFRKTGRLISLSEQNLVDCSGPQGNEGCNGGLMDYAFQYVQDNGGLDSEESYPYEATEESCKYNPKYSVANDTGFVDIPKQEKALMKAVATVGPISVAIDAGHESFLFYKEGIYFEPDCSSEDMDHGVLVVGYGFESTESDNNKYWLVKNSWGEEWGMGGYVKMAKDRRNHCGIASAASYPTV

## O=C(N[C@H](C(=O)N1C[C@H](Cl)[C@H]2OCC(=O)[C@H]21)C1CCCCC1)c1ccc(-c2cncnc2)s1 [Example 5, N-((S)-2-((3aS,6S,6aS)-6-chloro-3-oxotetrahydro-2H-furo[3,2-b]pyrrol-4(5H)-yl)-1-cyclohexyl-2-oxoethyl)-5-(pyrimidin-5-yl)thiophene-2-carboxamide]
Human cathepsin S (CatS)
  Selectivity Ki(hCatS)/Ki(hCatK): 1.5
  Ki: 48 nM
Human cathepsin K (CatK)
  Ki: 31 nM
Human cathepsin L (CatL)
  inhibition at 31.6 µM: 27%
[1]
  efflux ratio at 120 min, 10 μM: 3.5
  Papp A→B at 120 min, 10 μM: 4.13 ×10⁻⁶ cm/s
  Papp B→A at 120 min, 10 μM: 14.2 ×10⁻⁶ cm/s
Caco-2 cells
  A to B permeability (in words): moderate
  B to A permeability (in words): good
  efflux ratio (ER) (in words): intermediate/low

## O=C(N[C@H](C(=O)N1C[C@H](Cl)[C@H]2OCC(=O)[C@H]21)C1CCCCC1)c1ccc(-c2ccncn2)s1 [Example 7, N-((S)-2-((3aS,6S,6aS)-6-chloro-3-oxotetrahydro-2H-furo[3,2-b]pyrrol-4(5H)-yl)-1-cyclohexyl-2-oxoethyl)-5-(pyrimidin-4-yl)thiophene-2-carboxamide]
Human cathepsin S (CatS)
  Selectivity Ki(hCatS)/Ki(hCatK): 4.7
  Ki: 56 nM
Human cathepsin K (CatK)
  Ki: 12 nM
Human cathepsin L (CatL)
  inhibition at 31.6 µM: 28%
[1]
  efflux ratio at 120 min, 10 μM: 1.3
  Papp A→B at 120 min, 10 μM: 5.37 ×10⁻⁶ cm/s
  Papp B→A at 120 min, 10 μM: 7.03 ×10⁻⁶ cm/s
Caco-2 cells
  A to B permeability (in words): moderate
  B to A permeability (in words): good
  efflux ratio (ER) (in words): intermediate/low

## O=C(N[C@H](C(=O)N1C[C@H](Cl)[C@H]2OCC(=O)[C@H]21)C1CCCCC1)c1ccc(-c2ccnnc2)s1 [Example 8, N-((S)-2-((3aS,6S,6aS)-6-chloro-3-oxotetrahydro-2H-furo[3,2-b]pyrrol-4(5H)-yl)-1-cyclohexyl-2-oxoethyl)-5-(pyridazin-4-yl)thiophene-2-carboxamide]
Human cathepsin S (CatS)
  Selectivity Ki(hCatS)/Ki(hCatK): 1.2
  Ki: 21 nM
Human cathepsin K (CatK)
  Ki: 17 nM
Human cathepsin L (CatL)
  inhibition at 31.6 µM: 32%
[1]
  efflux ratio at 120 min, 10 μM: 7.5
  Papp A→B at 120 min, 10 μM: 1.67 ×10⁻⁶ cm/s
  Papp B→A at 120 min, 10 μM: 12.5 ×10⁻⁶ cm/s
Caco-2 cells
  A to B permeability (in words): moderate
  B to A permeability (in words): good
  efflux ratio (ER) (in words): intermediate/low

## Cc1cnncc1-c1ccc(C(=O)N[C@H](C(=O)N2C[C@H](Cl)[C@H]3OCC(=O)[C@H]32)C2CCCCC2)s1 [Example 90, N-((S)-2-((3aS,6S,6aS)-6-chloro-3-oxotetrahydro-2H-furo[3,2-b]pyrrol-4(5H)-yl)-1-cyclohexyl-2-oxoethyl)-5-(5-methylpyridazin-4-yl)thiophene-2-carboxamide]
Human cathepsin S (CatS)
  Selectivity Ki(hCatS)/Ki(hCatK): 7.3
  Ki: 73 nM
Human cathepsin K (CatK)
  Ki: 10 nM
Human cathepsin L (CatL)
  inhibition at 31.6 µM: 20%

## O=C(N[C@H](C(=O)N1C[C@H](Cl)[C@H]2OCC(=O)[C@H]21)C1CCCCC1)c1cccc(-c2cn[nH]c2)c1 [Example C1, N-((S)-2-((3aS,6S,6aS)-6-chloro-3-oxotetrahydro-2H-furo[3,2-b]pyrrol-4(5H)-yl)-1-cyclohexyl-2-oxoethyl)3-(1H-pyrazol-4-yl)benzamide, reference compound]
Human cathepsin S (CatS)
  Selectivity Ki(hCatS)/Ki(hCatK): 3.8
  Ki: 146 nM
Human cathepsin K (CatK)
  Ki: 38 nM
Human cathepsin L (CatL)
  inhibition at 31.6 µM: 71%
[1]
  efflux ratio at 120 min, 10 μM: 46.1
  Papp A→B at 120 min, 10 μM: 0.53 ×10⁻⁶ cm/s
  Papp B→A at 120 min, 10 μM: 24.6 ×10⁻⁶ cm/s
Caco-2 cells
  A to B permeability (in words): poor
  B to A permeability (in words): good
  efflux ratio (ER) (in words): extremely high
